# Columns and labels:
# [1] = Absorbance and fluorescence profiles of Compounds 1-4 in pH 7.4 sodium phosphate; assay type: physicochemical; conditions: pH 7.4 sodium phosphate buffer solution; for Absmax / Emmax / ε: 0.1% DMSO; for Φfl: cresyl violet in methanol as fluorescence reference
# Method: Absorbance and fluorescence profiles of 2-MeSiR620 (Compound 1) obtained in step (f) and 2-MeSiR620-a1 (Compound 2) obtained in step (i) were measured. Measurements were carried out in an aqueous solution of 0.1M sodium phosphate having a pH 7.4 and containing 0.1% DMSO. The wavelength of the excitation light in the fluorescence profile measurement was 620 nm for 2-MeSiR620 and 635 nm for 2-MeSiR620-a1.
# The absorbance and fluorescence spectra of 2-MeSiR630 (Compound 3) synthesized in step (b) and 2-MeSiR630-a1 (Compound 4) synthesized in step (d) were measured. Measurements were carried out in an aqueous solution of 0.1 sodium phosphate having a pH 7.4 and containing 0.1% DMSO. The excitation light in the fluorescence spectrum measurement was 633 nm for 2-MeSiR630 and 648 nm for 2-MeSiR630-a1.
# [2] = Optical characteristics of Compound 5 in pH 7.4 sodium phosphate; assay type: physicochemical; conditions: 0.1 sodium phosphate pH 7.4, 0.3% DMSO
# Method: The fluorescence wavelength was 665 nm and the wavelength of the excitation light was 637 nm. The measurement was carried out in an aqueous solution of 0.1 sodium phosphate having a pH 7.4 and containing 0.3% DMSO. Cy 5.5 (ΦFl=0.23) in water was used as the fluorescence reference to determine the fluorescence quantum yield.
# [3] = Fluorescence quantum yield of Compound 5 in various solvents; assay type: physicochemical
# [4] = Optical characteristics of dyes in phosphate buffered saline of pH 7.4; assay type: physicochemical
# [5] = Absorbance and fluorescence of Compound 6 in various solvents; assay type: physicochemical
# Method: Next, the absorbance and fluorescence spectra of Ac-IndoSiR (Compound 6) in various solvents were measured. […] The excitation wavelength was 540 nm. The maximum absorbance fluorescence wavelength, molar absorbance coefficient, and fluorescence quantum yield of Compound 6 in various solvents are shown in Table 5. The fluorescence quantum yield (ΦFl=0.44; determined using an absolute fluorescence quantum yield measurement device) of Compound 6 in chloroform was used as the fluorescence reference to determine the fluorescence quantum yield in various solvents.
# [6] = Optical characteristics / pH profile of Si-Rhodol (Compound 7); assay type: physicochemical
# Method: The pH profile of the absorbance and fluorescence spectra of Si-Rhodol (Compound 7) was examined. Measurement was carried out at various pH in 0.1M sodium phosphate solution containing 1% DMSO. The excitation wavelengths were 507 nm (FIG. 13) and 584 nm (FIG. 14).
# [7] = Optical characteristics / pH profile of O-Me-Si-Rhodol (Compound 8); assay type: physicochemical
# Method: The pH profile of the absorbance and fluorescence spectra of O-Me-Si-Rhodol (Compound 8) was examined. Measurement was carried out at various pH levels in 0.1M sodium phosphate solution containing 10% DMSO. The excitation wavelength was 503 nm.
# [8] = Optical characteristics / pH profile of N-AcSi-Rhodol (Compound 9); assay type: physicochemical
# Method: Measurement was carried out at various pH in 0.1M sodium phosphate solution containing 10% DMSO. The excitation wavelength was 503 nm.
# [9] = Optical characteristics of Compound 10 and predicted compound after reaction with active oxygen; assay type: physicochemical; conditions: 1 μM in PBS (pH 7.4), 0.1% DMF
# Method: The absorbance and fluorescence spectra (left side of FIG. 19) of 1 μM of compound 10 in PBS (pH 7.4) containing 0.1% DMF as a cosolvent, the absorbance and fluorescence spectra (right side of FIG. 19) of the compound predicted to be generated following a reaction of compound 10 and 1 μM active oxygen, and the optical characteristics of each compound were measured (Table 9).
# [10] = Reactivity and selectivity of Compound 10 toward active-oxygen species
# Method: Next, an analysis was carried out using the HPLC of a reaction induced by an active-oxygen-species. […] A sample was subjected to HPLC linear gradient elution (eluate: A/B=60/40—10 minutes—0/100; flow rate=1.0 mL/minute). Next, the selectivity of active-oxygen species of compound 10 was examined. The conditions of various active-oxygen species were as follows. H2O2: […] ONOO^−: […] O2^−: […] Hydroxy radical: H2O2 (final 1 mM) and FeClO4 (final 100 μM) were added.
# [11] = system: HL60 cells; test: Cell-imaging experiment using HL60 cells; assay type: cell-based; conditions: 1 μM probe, 1 mM H2O2 stimulation, 45 minutes
# Method: HL60 cells were cultured. […] The fluorescence image was observed thereafter.
# [12] = system: rat liver microsomes; test: In vitro experiment using rat liver microsomes (hypoxia vs normal oxygen); assay type: biochemical; conditions: 1 μM compound, 226 μg rat liver microsomes, 50 μM NADPH; ex 640 nm, em 660 nm
# Source text: The excitation wavelength was 640 nm and the fluorescence wavelength was 660 nm. In FIG. 26, Hyp is the measurement result for hypoxia and Nor is the measurement result for normal oxygen level.
# [13] = in water; cited from earlier work
# [14] = in methanol; cited from earlier work
# [15] = 0.1M sodium phosphate, 10% DMSO
# [16] = 0.1M sodium phosphate, 10% DMSO, excitation 503 nm
compound,measurement,setting,value
2-MeSiR620 [Compound 1],Absmax,[1],620 nm
same,Emmax,[1],638 nm
same,ε,[1],"96,000 M^−1cm^−1"
same,Φfl,[1],0.21
"CNc1ccc2c(c1)[Si](C)(C)C1=CC(=[N+](C)C)C=CC1=C2c1ccccc1C [Compound 3, 2-MeSiR630]",Absmax,[1],633 nm
same,Emmax,[1],649 nm
same,ε,[1],"120,000 M^−1cm^−1"
same,Φfl,[1],0.11
"Cc1ccccc1C1=C2C=CC(=[N+](C)C)C=C2[Si](C)(C)c2cc(N(C)CCCC(=O)O)ccc21 [Compound 4, 2-MeSiR630-a1]",Absmax,[1],648 nm
same,Emmax,[1],666 nm
same,ε,[1],"140,000 M^−1cm^−1"
same,Φfl,[1],0.30
"Cc1ccccc1C1=c2cc3c(cc2[Si](C)(C)c2cc(N)ccc21)=[N+](C)CC3 [Compound 5, 2MeIndoSiR]",ε,[2],54000 M⁻¹ cm⁻¹
same,λem,[2],665 nm
same,λex,[2],641 nm
same,Φfl,[2]; Cy 5.5 in water as reference,0.18
same,Fluorescence quantum yield ΦF1,[3]; 20% FBS,0.36
same,Fluorescence quantum yield ΦF1,[3]; Acetone,0.39
same,Fluorescence quantum yield ΦF1,[3]; CH3CN,0.42
same,Fluorescence quantum yield ΦF1,[3]; CHCl3,0.89
same,Fluorescence quantum yield ΦF1,[3]; DMF,0.39
same,Fluorescence quantum yield ΦF1,[3]; DMSO,0.35
same,Fluorescence quantum yield ΦF1,[3]; FBS,0.35
same,Fluorescence quantum yield ΦF1,[3]; MeOH,0.46
same,Φn (absolute fluorescence quantum yield measured using integrating spheres),[4],0.14
same,λabs. max,[4],637 nm
same,λfl. max,[4],664 nm
"CC(=O)Nc1ccc2c(c1)[Si](C)(C)c1cc3c(cc1=C2c1ccccc1C)CC[N+]=3C [Compound 6, Ac-IndoSiR]",Absmax,[5]; Acetone,532 nm
same,Emmax,[5]; Acetone,641 nm
same,ΦFl,[5]; Acetone,0.15
same,ε,[5]; Acetone,"27,000 M^−1cm^−1"
same,Absmax,[5]; Benzene,644 nm
same,Emmax,[5]; Benzene,665 nm
same,ΦFl,[5]; Benzene,0.26
same,ε,[5]; Benzene,"34,000 M^−1cm^−1"
same,Absmax,[5]; CH2Cl2,552 nm
same,Emmax,[5]; CH2Cl2,641 nm
same,ΦFl,[5]; CH2Cl2,0.27
same,ε,[5]; CH2Cl2,"33,000 M^−1cm^−1"
same,Absmax,[5]; CH3CN,529 nm
same,Emmax,[5]; CH3CN,636 nm
same,ΦFl,[5]; CH3CN,0.16
same,ε,[5]; CH3CN,"29,000 M^−1cm^−1"
same,Absmax,[5]; CHCl3,623 nm
same,Emmax,[5]; CHCl3,652 nm
same,ε,[5]; CHCl3,"36,000 M^−1cm^−1"
same,ΦFl,"[5]; CHCl3, absolute fluorescence quantum yield measurement device",0.44
same,Absmax,[5]; DMF,536 nm
same,Emmax,[5]; DMF,645 nm
same,ΦFl,[5]; DMF,0.19
same,ε,[5]; DMF,"9,000 M^−1cm^−1"
same,Absmax,[5]; DMSO,534 nm
same,Emmax,[5]; DMSO,651 nm
same,ΦFl,[5]; DMSO,0.12
same,ε,[5]; DMSO,"30,000 M^−1cm^−1"
same,Absmax,[5]; MeOH,526 nm
same,Emmax,[5]; MeOH,637 nm
same,ΦFl,[5]; MeOH,0.10
same,ε,[5]; MeOH,"27,000 M^−1cm^−1"
same,Absmax,[5]; NaPi buffer (pH 7.4),500 nm
same,Emmax,[5]; NaPi buffer (pH 7.4),630 nm
same,ΦFl,[5]; NaPi buffer (pH 7.4),0.06
same,ε,[5]; NaPi buffer (pH 7.4),"29,000 M^−1cm^−1"
same,Absmax,[5]; THF,559 nm
same,Emmax,[5]; THF,654 nm
same,ΦFl,[5]; THF,0.18
same,ε,[5]; THF,"21,000 M^−1cm^−1"
same,Absmax,[5]; Toluene,644 nm
same,Emmax,[5]; Toluene,665 nm
same,ΦFl,[5]; Toluene,0.31
same,ε,[5]; Toluene,"32,000 M^−1cm^−1"
"Cc1ccccc1C1=C2C=CC(=O)C=C2[Si](C)(C)c2cc(N)ccc21 [Compound 7, Si-Rhodol]",ε,"[6]; 0.1M sodium phosphate, 1% DMSO","40,000 M^−1cm^−1"
same,λem,"[6]; 0.1M sodium phosphate, 1% DMSO",605 nm
same,absorption maximum (FIG. 14),"[6]; FIG. 14, excitation wavelength 584 nm",~600 nm
same,Φfl,[6]; pH: 3.0,0.28 (pH: 3.0)
same,λabs,[6]; pH: 3.0,507 (pH: 3.0) nm
same,Φfl,[6]; pH: 7.4,0.56 (pH: 7.4)
same,λabs,[6]; pH: 7.4,584 (pH: 7.4) nm
same,λabs,"[6]; pH: 7.4, listed as Si-Rhodol",~580 nm
"COc1ccc2c(c1)[Si](C)(C)C1=CC(=N)C=CC1=C2c1ccccc1C [Compound 8, O-MeSi-Rhodol]",λabs,[7]; [15],503 nm
same,λem,[7]; [16],580 nm
same,λabs,"[7]; 0.1M sodium phosphate, 10% DMSO, listed as O-MeSi-Rhodol",~500 nm
same,absorption maximum (FIG. 16),[7]; FIG. 16,~600 nm
same,ΦFL,[7]; pH: 3.0,0.24 (pH: 3.0)
same,ΦFL,[7]; pH: 7.4,0.18 (pH: 7.4)
"CC(=O)Nc1ccc2c(c1)[Si](C)(C)C1=CC(=O)C=CC1=C2c1ccccc1C [Compound 9, N-AcSi-Rhodol]",λabs,[8]; [15],455 nm
same,λem,[8]; [16],590 nm
same,λabs,"[8]; 0.1M sodium phosphate, 10% DMSO, listed as N-AcSi-Rhodol",~450 nm
same,ΦFL,[8]; pH: 7.4,0.17 (pH: 7.4)
same,ε,[8]; pH: 10.0,7000 (pH: 10.0) M^−1cm^−1
"CC/[N+](=C1\C=CC2=C(c3ccccc3C)c3cc4c(cc3[Si](C)(C)C2=C1)N(C)CC4)c1ccc(O)cc1 [Compound 10, 2MeIndo-N-ethyl-phenol-SiR]",Absmax,[9],670 nm
same,selectivity of active-oxygen species,"[10]; H2O2, −OCl, ONOO−, O2−, hydroxy radical",reacted selectively with ^−OCl and ONOO^−
same,"reaction with −OCl (HPLC, ESI-MS analysis)",[10]; −OCl,produce the predicted reactant
same,increase in fluorescence after reaction with active-oxygen species,[10]; −OCl and ONOO−,100 times
same,increase in fluorescence inside cells relative to no stimulation,[11],about four
"Cc1ccccc1C1=c2cc3c(cc2[Si](C)(C)c2cc(/N=N/c4ccc(N(C)C)cc4)ccc21)=[N+](C)CC3 [Compound 11, 2MeazoSiR650]",Φn (absolute fluorescence quantum yield measured using integrating spheres),[4],<0.001
same,λabs. max,[4],590 nm
same,change in fluorescence intensity in a hypoxic environment,[12],dramatic increase in fluorescence intensity
"Cc1cccc(C)c1C1=c2cc3c(cc2[Si](C)(C)c2cc(N)ccc21)=[N+](C)CC3 [Compound 13, diMeSiR650]",Φn (absolute fluorescence quantum yield measured using integrating spheres),[4],0.15
same,λabs. max,[4],637 nm
same,λfl. max,[4],670 nm
"Cc1cccc(C)c1C1=c2cc3c(cc2[Si](C)(C)c2cc(/N=N/c4ccc(N(C)C)cc4)ccc21)=[N+](C)CC3 [Compound 14, diMeazoSiR650]",Φn (absolute fluorescence quantum yield measured using integrating spheres),[4],0.002
same,λabs. max,[4],587 nm
same,change in fluorescence intensity in a hypoxic environment,[12],dramatic increase in fluorescence intensity
CCN1\C(=C/C=C/C=C/C2=[N+](CCCCCC(=O)O)c3ccc4c(S(=O)(=O)O)cc(S(=O)(=O)O)cc4c3C2(C)C)C(C)(C)c2c1ccc1c(S(=O)(=O)[O-])cc(S(=O)(=O)O)cc21 [Cy 5.5],ΦFl of fluorescence reference,[13],0.23
Cresyl violet,Φfl of fluorescence reference,[14],^bCresyl violet in methanol (Φfl = 0.54) was used as the fluorescence reference

# Reference: US9714260B2, “Asymmetrical Si rhodamine and rhodol synthesis” (THE UNIVERSITY OF TOKYO, priority 2013, dated 2017)
